Source: patent US20250332266A1, “COMPOUNDS FOR THE DEGRADATION OF EGFR KINASE” (BeiGene Switzerland GmbH, priority 2022, published 2025)
Read-outs that look alike come from different tables or passages of the source.

Experiments:
[1] = biological target: T1, EGFR L858R/C797S (H1975-clone #8) (Homo sapiens, UniProt P00533, C797S/L858R); experiment: EGFR degradation, HTRF total-EGFR assay, H1975-clone #8 (L858R/C797S); assay type: cell-based; details: 16 h treatment
T1 construct: expressed in transfected cells; host or cells: H1975 (clone #8), lentiviral transduction, endogenous EGFR knocked out
Experimental: H1975-clone #8 (L858R/C797S): EGFR-L858R/C797S were stably expressed in H1975 cell lines by lentivirus-mediated over-expression, respectively. The EGFR over-expressed cells then underwent knockout, in which the EGFR targeting sgRNA was designed to only target the endogenous EGFR copies and preserve the exogenous EGFR copies. Followed by the knockout, the edited H1975 cells were seeded in 96 well plates at the concentration of 1 cell/well, cultured for about 2 weeks to allow single clones formation. The formed clones were screened by DNA sequencing and whole exon sequencing analysis for the desired edition. H1975-clone #8 were finally confirmed as homozygous L858R/C797S EGFR clones.
(§1) H1975-#8 and BaF3-L858R cells are treated with compounds diluted in 0.1% DMSO cell culture medium on day 2, incubate for 16 h, 37° C., 5% CO2. the final concentration of compounds in all assay starts with 10 uM, 5-fold dilution, total 8 doses were included.
(§2) Total-EGFR cellular kit (64NG1PEH) were used for evaluating EGFR degradation.
(§3) After 16 h treatment, for H1975-#8 cells, add 100 μL HTRF 1× lysis buffer to each well; for BaF3-L858R cells, add 20 μL 4× lysis buffer to each well; seal the plate and incubate 1 hour at room temperature on a plate shaker; Once the cells are lysed, 16 μL of cell lysate are transferred to a PE 384-well HTRF detection plate; 4 μL of pre-mixed HTRF antibodies are added to each well; cover the plate with a plate sealer, spin 1000 rpm for 1 min, incubate overnight at room temperature; read on BMG PheraStar with HTRF protocol (337 nm-665 nm-620 nm).
(§4) The inhibition (degradation) percentage of the compound was calculated by the following equation:
(§5) Inhibition percentage of Compound=100−100×(Signal−low control)/(High control−low control), wherein signal=each test compound group
(§6) High control=Cell group with added DMSO and without compound, indicating microplate readings without EGFR degradation.
(§7) Imax (Dmax) is the maximum percentage of inhibition (degradation).
(§8) The IC50 (DC50) value of a compound can be obtained by fitting the following equation
(§9) Wherein, X and Y are known values, and IC50, Hillslope, Top and Bottom are the parameters obtained by fitting with software. Y is the inhibition percentage (calculated from the equation), X is the concentration of the compound; IC50 is the concentration of the compound when the 50% inhibition is reached. The smaller the IC50 value is, the stronger the inhibitory ability of the compound is. Vice versa, the higher the IC50 value is, the weaker the ability the inhibitory ability of the compound is; Hillslope represents the slope of the fitted curve, generally around 1*; Bottom represents the minimum value of the curve obtained by data fitting, which is generally 0%±20%; Top represents the maximum value of the curve obtained by data fitting, which is generally 100%±20%. The experimental data were fitted by calculating and analyzing with Dotmatics data analysis software.

[2] = biological target: T2, EGFR L858R (BaF3-L858R) (Homo sapiens, UniProt P00533, L858R); experiment: EGFR degradation, HTRF total-EGFR assay, BaF3-L858R cells; assay type: cell-based; details: 16 h treatment
T2 construct: host or cells: BaF3
Experimental: BaF3-L858R (abbv. L858R) cell were purchased from Kangyuan Bochuang Biotechnology (Beijing) Co., Ltd.
as §1, §2, §3, §4, §5, §6, §7, §8, §9

[3] = amide bond, 15-membered ring, 25.0 °C

T1 sequence (P00533 25-1210 C797S/L858R): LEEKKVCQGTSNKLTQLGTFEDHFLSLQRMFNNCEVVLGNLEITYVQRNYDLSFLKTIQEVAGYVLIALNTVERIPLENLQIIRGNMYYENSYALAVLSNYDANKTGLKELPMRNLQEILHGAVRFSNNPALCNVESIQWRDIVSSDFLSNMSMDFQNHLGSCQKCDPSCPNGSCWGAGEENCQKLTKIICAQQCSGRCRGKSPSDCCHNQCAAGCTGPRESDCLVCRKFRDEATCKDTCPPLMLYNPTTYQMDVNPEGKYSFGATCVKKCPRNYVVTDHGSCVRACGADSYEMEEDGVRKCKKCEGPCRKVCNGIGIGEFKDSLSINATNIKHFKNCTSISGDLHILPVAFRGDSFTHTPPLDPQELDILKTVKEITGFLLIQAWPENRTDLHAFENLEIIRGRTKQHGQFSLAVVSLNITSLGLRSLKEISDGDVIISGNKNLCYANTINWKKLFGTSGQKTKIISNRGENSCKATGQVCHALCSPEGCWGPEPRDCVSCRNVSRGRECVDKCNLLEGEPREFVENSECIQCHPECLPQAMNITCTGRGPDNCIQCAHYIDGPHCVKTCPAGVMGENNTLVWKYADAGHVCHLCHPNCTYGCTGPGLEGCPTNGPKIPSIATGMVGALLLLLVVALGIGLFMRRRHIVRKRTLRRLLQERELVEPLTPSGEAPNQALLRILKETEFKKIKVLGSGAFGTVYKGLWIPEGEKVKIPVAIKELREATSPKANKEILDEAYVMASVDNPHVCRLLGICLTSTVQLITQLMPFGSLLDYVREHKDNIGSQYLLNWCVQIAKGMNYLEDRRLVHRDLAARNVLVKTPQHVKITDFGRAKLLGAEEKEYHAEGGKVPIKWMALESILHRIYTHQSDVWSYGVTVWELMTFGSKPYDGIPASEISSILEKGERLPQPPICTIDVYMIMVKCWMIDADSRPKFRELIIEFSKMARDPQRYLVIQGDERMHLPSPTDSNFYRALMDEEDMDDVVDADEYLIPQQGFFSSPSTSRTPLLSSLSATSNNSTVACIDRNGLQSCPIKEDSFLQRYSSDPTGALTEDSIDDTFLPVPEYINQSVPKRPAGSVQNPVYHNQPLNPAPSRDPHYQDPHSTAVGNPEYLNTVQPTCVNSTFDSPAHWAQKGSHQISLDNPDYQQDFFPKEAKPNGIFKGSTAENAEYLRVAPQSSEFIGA
T2 sequence (P00533 25-1210 L858R): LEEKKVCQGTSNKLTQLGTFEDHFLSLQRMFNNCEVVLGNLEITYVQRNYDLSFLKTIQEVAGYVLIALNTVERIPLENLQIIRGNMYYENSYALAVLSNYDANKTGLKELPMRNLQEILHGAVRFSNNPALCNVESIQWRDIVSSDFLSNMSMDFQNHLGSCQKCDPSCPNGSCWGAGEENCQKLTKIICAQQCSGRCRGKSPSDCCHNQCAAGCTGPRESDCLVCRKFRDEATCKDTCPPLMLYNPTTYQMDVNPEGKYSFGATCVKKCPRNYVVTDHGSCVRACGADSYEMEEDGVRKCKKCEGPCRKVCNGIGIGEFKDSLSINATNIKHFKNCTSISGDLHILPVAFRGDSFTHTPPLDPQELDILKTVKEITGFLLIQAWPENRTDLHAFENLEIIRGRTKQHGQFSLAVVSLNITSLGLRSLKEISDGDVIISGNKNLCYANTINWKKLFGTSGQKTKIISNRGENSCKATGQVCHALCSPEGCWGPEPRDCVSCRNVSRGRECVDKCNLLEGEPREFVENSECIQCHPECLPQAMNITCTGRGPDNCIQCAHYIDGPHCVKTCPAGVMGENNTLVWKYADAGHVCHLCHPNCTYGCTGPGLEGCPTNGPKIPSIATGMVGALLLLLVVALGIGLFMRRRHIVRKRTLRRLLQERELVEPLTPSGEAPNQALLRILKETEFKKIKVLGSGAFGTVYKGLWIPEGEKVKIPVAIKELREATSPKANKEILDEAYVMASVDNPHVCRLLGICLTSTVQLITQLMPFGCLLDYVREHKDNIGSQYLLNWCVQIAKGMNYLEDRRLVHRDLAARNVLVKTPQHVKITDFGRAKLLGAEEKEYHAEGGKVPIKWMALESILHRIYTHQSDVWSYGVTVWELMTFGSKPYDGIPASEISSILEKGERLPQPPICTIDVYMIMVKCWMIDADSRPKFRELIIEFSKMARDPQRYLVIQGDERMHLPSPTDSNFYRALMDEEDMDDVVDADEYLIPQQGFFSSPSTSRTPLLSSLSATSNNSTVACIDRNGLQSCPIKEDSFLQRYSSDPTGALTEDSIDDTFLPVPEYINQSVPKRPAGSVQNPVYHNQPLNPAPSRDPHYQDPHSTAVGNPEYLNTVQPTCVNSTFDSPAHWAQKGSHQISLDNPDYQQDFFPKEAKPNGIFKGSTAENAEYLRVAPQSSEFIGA

Which DC50 [1] does the source give for Cc1cc2cc(n1)-c1cnn(C)c1OC[C@H]1C[C@@H](CN3/C(=N/C2=O)Nc2ccc(N4CCN(C5CCN(c6c(C)cc(C7CCC(=O)NC7=O)nc6C)CC5)CC4)cc23)C1 (stereo partly shown) [Example 141, 3-(5-(4-(4-((7^1s,7^3s,E)-1^1,2^6-dimethyl-3-oxo-5^2,5^3-dihydro-1^1H,5^1H-9-oxa-4-aza-5(2,1)-benzo[d]imidazola-2(2,4)-pyridina-1(4,5)-pyrazola-7(1,3)-cyclobutanacyclononaphane-5^6-yl)piperazin-1-yl)piperidin-1-yl)-4,6-dimethylpyridin-2-yl)piperidine-2,6-dione] here?
The DC50 was 0.7 nM.

And the Dmax [1]?
Its Dmax is 40.4%.

And the DC50 [2]?
Its DC50 is 11.9 nM.

And the Dmax [2]?
The Dmax was 85.1%.

Which DC50 [2] does the source give for Cc1cc2cc(n1)-c1cnn(C)c1OC[C@H]1C[C@@H](CN3/C(=N/C2=O)Nc2ccc(N4CCN(C5CN(C6CCN(c7cc(F)c([C@H]8CCC(=O)NC8=O)c(F)c7)CC6)C5)C[C@H]4C)cc23)C1 [Example 148, (R)-3-(4-(4-(3-((R)-4-((7^1s,7^3S,E)-1^1,2^6-dimethyl-3-oxo-5^2,5^3-dihydro-1^1H,5^1H-9-oxa-4-aza-5(2,1)-benzo[d]imidazola-2(2,4)-pyridina-1(4,5)-pyrazola-7(1,3)-cyclobutanacyclononaphane-5^6-yl)-3-methylpiperazin-1-yl)azetidin-1-yl)piperidin-1-yl)-2,6-difluorophenyl)piperidine-2,6-dione] here?
The DC50 was 3 nM.

What about the Dmax [2] of the same molecule?
Its Dmax is 80%.

For CCc1cc(C2CCC(=O)NC2=O)ncc1N1CCC(N2CC(N3CCN(c4ccc5c(c4)N4C[C@H]6C[C@@H](COc7c(cnn7C)-c7cc(cc(C)n7)C(=O)/N=C/4N5)C6)CC3)C2)CC1 (stereo partly shown) [Example 143, 3-(5-(4-(3-(4-((7^1s,7^3s,E)-1^1,2^6-dimethyl-3-oxo-5^2,5^3-dihydro-1^1H,5^1H-9-oxa-4-aza-5(2,1)-benzo[d]imidazola-2(2,4)-pyridina-1(4,5)-pyrazola-7(1,3)-cyclobutanacyclononaphane-5^6-yl)piperazin-1-yl)azetidin-1-yl)piperidin-1-yl)-4-ethylpyridin-2-yl)piperidine-2,6-dione], which DC50 [2] is on record?
The DC50 was 8.5 nM.

What about the Dmax [2] of the same molecule?
Its Dmax is 75.8%.

With Cc1cc(C(=O)O)cc(-c2cnn(C)c2OCC2CC(Cn3c(=N)[nH]c4ccc(CN5CCN(C(=O)OC(C)(C)C)CC5)cc43)C2)n1 (stereo not shown) as the molecule, how does the ring closure, isolated yield ([3]; the molecule shown is the open-chain precursor, HATU/DIEA, DMF, 70.0 mM) read?
Its ring closure, isolated yield is 50.1%.

Which ring closure, isolated yield ([3]; the molecule shown is the open-chain precursor, LiHMDS, THF, 116.0 mM) does the source give for COC(=O)c1cc(C)nc(-c2cnn(C)c2OCC2CC(Cn3c(=N)[nH]c4ccc(Br)cc43)C2)c1 (stereo not shown) here?
Its ring closure, isolated yield is 74.7%.

What does the source list for CCc1nc(C2CCC(=O)NC2=O)ccc1N1CCC(N2CC(N3CCN(c4ccc5c(c4)N4C[C@H]6C[C@@H](COc7c(cnn7C)-c7cc(cc(C)n7)C(=O)/N=C/4N5)C6)CC3)C2)CC1 (stereo partly shown) [Example 149, 3-(5-(4-(3-(4-((7^1s,7^3s,E)-1^1,2^6-dimethyl-3-oxo-5^2,5^3-dihydro-1^1H,5^1H-9-oxa-4-aza-5(2,1)-benzo[d]imidazola-2(2,4)-pyridina-1(4,5)-pyrazola-7(1,3)-cyclobutanacyclononaphane-5^6-yl)piperazin-1-yl)azetidin-1-yl)piperidin-1-yl)-6-ethylpyridin-2-yl)piperidine-2,6-dione]?
DC50 [1]: 3.3 nM; Dmax [1]: 52.2%; DC50 [2]: 16 nM; Dmax [2]: 71.1%

Which results are given for Cc1cc2cc(n1)-c1cnn(C)c1OC[C@H]1C[C@@H](CN3/C(=N/C2=O)Nc2ccc(N4C[C@H](C)N(C5CCN(c6ccc(C7CCC(=O)NC7=O)nc6C)CC5)C[C@@H]4C)cc23)C1 (stereo partly drawn) [Example 139, 3-(5-(4-((2S,5S)-4-((7^1s,7^3R,E)-1^1,2^6-dimethyl-3-oxo-5^2,5^3-dihydro-1^1H,5^1H-9-oxa-4-aza-5(2,1)-benzo[d]imidazola-2(2,4)-pyridina-1(4,5)-pyrazola-7(1,3)-cyclobutanacyclononaphane-5^6-yl)-2,5-dimethylpiperazin-1-yl)piperidin-1-yl)-6-methylpyridin-2-yl)piperidine-2,6-dione]?
DC50 [2]: 30.7 nM; Dmax [2]: 88.9%

With Cc1cc2cc(n1)-c1cnn(C)c1OCC1CC(C1)Cn1c(nc3ccc(N4CCN(C(=O)OC(C)(C)C)CC4=O)cc31)NC2=O as the molecule, how does the ring closure, isolated yield ([3]; from Cc1cc(C(=O)O)cc(-c2cnn(C)c2OCC2CC(Cn3c(N)nc4ccc(N5CCN(C(=O)OC(C)(C)C)CC5=O)cc43)C2)n1, HATU/DIEA, DCM, 34.0 mM) read?
Its ring closure, isolated yield is 51.6%.

Which results are given for CCc1nc(C2CCC(=O)NC2=O)ccc1N1CCC(N2CCN(c3ccc4c(c3)N3C[C@H]5C[C@@H](COc6c(cnn6C)-c6cc(cc(C)n6)C(=O)/N=C/3N4)C5)CC2)CC1 (stereo partly shown) [Example 140, 3-(5-(4-(4-((7^1s,7^3s,E)-1^1,2^6-dimethyl-3-oxo-5^2,5^3-dihydro-1H,5^1H-9-oxa-4-aza-5(2,1)-benzo[d]imidazola-2(2,4)-pyridina-1(4,5)-pyrazola-7(1,3)-cyclobutanacyclononaphane-5^6-yl)piperazin-1-yl)piperidin-1-yl)-6-ethylpyridin-2-yl)piperidine-2,6-dione]?
DC50 [2]: 37.8 nM; Dmax [2]: 90.6%

What does the source list for Cc1cc2cc(n1)-c1cnn(C)c1OC[C@H]1C[C@@H](CN3/C(=N/C2=O)Nc2ccc(N4CCN(C5CN(CCc6c(C)cc(C7CCC(=O)NC7=O)nc6C)C5)CC4)cc23)C1 (stereo partly shown) [Example 150, 3-(5-(2-(3-(4-((7^1s,7^3s,E)-1^1,2^6-dimethyl-3-oxo-5^2,5^3-dihydro-1^1H,5^1H-9-oxa-4-aza-5(2,1)-benzo[d]imidazola-2(2,4)-pyridina-1(4,5)-pyrazola-7(1,3)-cyclobutanacyclononaphane-5^6-yl)piperazin-1-yl)azetidin-1-yl)ethyl)-4,6-dimethylpyridin-2-yl)piperidine-2,6-dione]?
DC50 [1]: 3.5 nM; Dmax [1]: 51.9%; DC50 [2]: 11.9 nM; Dmax [2]: 73.5%

Which DC50 [2] does the source give for Cc1cc2cc(n1)-c1cnn(C)c1OC[C@H]1C[C@@H](CN3/C(=N/C2=O)Nc2ccc(N4CCN(C5CCN(c6cc(F)c(C7CCC(=O)NC7=O)nc6C)CC5)CC4)cc23)C1 (stereo partly shown) [Example 142, 3-(5-(4-(4-((7^1s,7^3s,E)-1^1,2^6-dimethyl-3-oxo-5^2,5^3-dihydro-1^1H,5^1H-9-oxa-4-aza-5(2,1)-benzo[d]imidazola-2(2,4)-pyridina-1(4,5)-pyrazola-7(1,3)-cyclobutanacyclononaphane-5^6-yl)piperazin-1-yl)piperidin-1-yl)-3-fluoro-6-methylpyridin-2-yl)piperidine-2,6-dione] here?
Its DC50 is 52.3 nM.

And the Dmax [2]?
The Dmax was 76.2%.
